Experimental data taken from patent US12077503B2, “Substituted cyclic amides and their use as herbicides” (FMC CORPORATION, priority 2015, dated 2024).

Columns and labels:
Assay type in all cases: in vivo
[1] = test system: barnyardgrass (Echinochloa crus-galli); assay: Test G Pre-Emergence Protocol; settings: Echinochloa crus-galli, pre-emergence, 312 h, evaluated after 13 days; for pest or weed control at 15.625 g/ha: 15.625 g ai/ha; for pest or weed control at 15.625 g/ha / pest or weed control at 250 g/ha: read-out: Barnyardgrass damage rating (100=total damage to plant; 0=no damage to plant); for pest or weed control at 62.5 g/ha: 62.5 g ai/ha, 100=total damage to plant, 0=no damage to plant, read-out: Barnyardgrass damage rating; for pest or weed control at 250 g/ha: 250 g ai/ha
In short: (§1)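 One day after sowing, pots are treated with a spray of test compound formulated in acetone/water 50:50 plus 0.5% Tween 20, giving 15.625, 62.5 or 250 g/ha. Evaluation on a 0–100 damage scale follows 13 days of glasshouse growth.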

[2] = test system: ivy-leaved morning glory (Ipomoea hederacea); assay: Test G Pre-Emergence Protocol; settings: Ipomoea, pre-emergence, 312 h, evaluated after 13 days; for pest or weed control at 15.625 g/ha: 15.625 g ai/ha; for pest or weed control at 15.625 g/ha / pest or weed control at 250 g/ha: read-out: Morningglory, Ivy-leaved damage rating (100=total damage to plant; 0=no damage to plant); for pest or weed control at 62.5 g/ha: 62.5 g ai/ha, 100=total damage to plant, 0=no damage to plant, read-out: Morningglory, Ivy-leaved damage rating; for pest or weed control at 250 g/ha: 250 g ai/ha
In short: as §1

[3] = test system: velvetleaf (Abutilon theophrasti); assay: Test G Pre-Emergence Protocol; settings: Abutilon theophrasti, pre-emergence, 312 h, evaluated after 13 days; for pest or weed control at 15.625 g/ha: 15.625 g ai/ha; for pest or weed control at 15.625 g/ha / pest or weed control at 250 g/ha: read-out: Velvetleaf damage rating (100=total damage to plant; 0=no damage to plant); for pest or weed control at 62.5 g/ha: 62.5 g ai/ha, 100=total damage to plant, 0=no damage to plant, read-out: Velvetleaf damage rating; for pest or weed control at 250 g/ha: 250 g ai/ha
In short: as §1

corn (Zea mays) [4] = assay: Test G Pre-Emergence Protocol; settings: Zea mays, pre-emergence, 312 h, evaluated after 13 days; for plant injury at 15.625 g/ha: 15.625 g ai/ha; for plant injury at 15.625 g/ha / plant injury at 250 g/ha: read-out: Corn damage rating (100=total damage to plant; 0=no damage to plant); for plant injury at 62.5 g/ha: 62.5 g ai/ha, 100=total damage to plant, 0=no damage to plant, read-out: Corn damage rating; for plant injury at 250 g/ha: 250 g ai/ha
In short: as §1

[5] = test system: giant foxtail (Setaria faberi); assay: Test G Pre-Emergence Protocol; settings: Setaria faberi, pre-emergence, 312 h, evaluated after 13 days; for pest or weed control at 15.625 g/ha: 15.625 g ai/ha; for pest or weed control at 15.625 g/ha / pest or weed control at 250 g/ha: read-out: Foxtail, Giant damage rating (100=total damage to plant; 0=no damage to plant); for pest or weed control at 62.5 g/ha: 62.5 g ai/ha, 100=total damage to plant, 0=no damage to plant, read-out: Foxtail, Giant damage rating; for pest or weed control at 250 g/ha: 250 g ai/ha
In short: as §1

[6] = test system: redroot pigweed (Amaranthus retroflexus); assay: Test G Pre-Emergence Protocol; settings: Amaranthus retroflexus, pre-emergence, 312 h, evaluated after 13 days; for pest or weed control at 15.625 g/ha: 15.625 g ai/ha; for pest or weed control at 15.625 g/ha / pest or weed control at 250 g/ha: read-out: Pigweed, Redroot damage rating (100=total damage to plant; 0=no damage to plant); for pest or weed control at 62.5 g/ha: 62.5 g ai/ha, 100=total damage to plant, 0=no damage to plant, read-out: Pigweed, Redroot damage rating; for pest or weed control at 250 g/ha: 250 g ai/ha
In short: as §1

[7] = test system: barnyardgrass (Echinochloa crus-galli); assay: Test G Post-Emergence Protocol; settings: Echinochloa crus-galli, post-emergence, 312 h, read-out: Barnyardgrass damage rating; for pest or weed control at 15.625 g/ha: 15.625 g ai/ha, evaluated after 13 days (100=total damage to plant; 0=no damage to plant); for pest or weed control at 62.5 g/ha: 62.5 g ai/ha; for pest or weed control at 62.5 g/ha / pest or weed control at 250 g/ha: evaluated after 13 days, 100=total damage to plant, 0=no damage to plant; for pest or weed control at 250 g/ha: 250 g ai/ha
In short: (§2)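 Damage was rated 13 days after treatment from 0 (none) to 100 (plant killed). Compound was applied as a spray at 15.625, 62.5 or 250 g/ha in 50:50 acetone/water containing 0.5% Tween 20, onto 8-day-old potted plants kept in a glasshouse (24/16 °C, 14 h light, 65% humidity).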

[8] = test system: ivy-leaved morning glory (Ipomoea hederacea); assay: Test G Post-Emergence Protocol; settings: Ipomoea, post-emergence, 312 h, read-out: Morningglory, Ivy-leaved damage rating; for pest or weed control at 15.625 g/ha: 15.625 g ai/ha, evaluated after 13 days (100=total damage to plant; 0=no damage to plant); for pest or weed control at 62.5 g/ha: 62.5 g ai/ha; for pest or weed control at 62.5 g/ha / pest or weed control at 250 g/ha: evaluated after 13 days, 100=total damage to plant, 0=no damage to plant; for pest or weed control at 250 g/ha: 250 g ai/ha
In short: as §2

[9] = test system: velvetleaf (Abutilon theophrasti); assay: Test G Post-Emergence Protocol; settings: Abutilon theophrasti, post-emergence, 312 h, read-out: Velvetleaf damage rating; for pest or weed control at 15.625 g/ha: 15.625 g ai/ha, evaluated after 13 days (100=total damage to plant; 0=no damage to plant); for pest or weed control at 62.5 g/ha: 62.5 g ai/ha; for pest or weed control at 62.5 g/ha / pest or weed control at 250 g/ha: evaluated after 13 days, 100=total damage to plant, 0=no damage to plant; for pest or weed control at 250 g/ha: 250 g ai/ha
In short: as §2

corn (Zea mays) [10] = assay: Test G Post-Emergence Protocol; settings: Zea mays, post-emergence, 312 h, read-out: Corn damage rating; for plant injury at 15.625 g/ha: 15.625 g ai/ha, evaluated after 13 days (100=total damage to plant; 0=no damage to plant); for plant injury at 62.5 g/ha: 62.5 g ai/ha; for plant injury at 62.5 g/ha / plant injury at 250 g/ha: evaluated after 13 days, 100=total damage to plant, 0=no damage to plant; for plant injury at 250 g/ha: 250 g ai/ha
In short: as §2

[11] = test system: giant foxtail (Setaria faberi); assay: Test G Post-Emergence Protocol; settings: Setaria faberi, post-emergence, 312 h, read-out: Foxtail, Giant damage rating; for pest or weed control at 15.625 g/ha: 15.625 g ai/ha, evaluated after 13 days (100=total damage to plant; 0=no damage to plant); for pest or weed control at 62.5 g/ha: 62.5 g ai/ha; for pest or weed control at 62.5 g/ha / pest or weed control at 250 g/ha: evaluated after 13 days, 100=total damage to plant, 0=no damage to plant; for pest or weed control at 250 g/ha: 250 g ai/ha
In short: as §2

[12] = test system: redroot pigweed (Amaranthus retroflexus); assay: Test G Post-Emergence Protocol; settings: Amaranthus retroflexus, post-emergence, 312 h, read-out: Pigweed, Redroot damage rating; for pest or weed control at 15.625 g/ha: 15.625 g ai/ha, evaluated after 13 days (100=total damage to plant; 0=no damage to plant); for pest or weed control at 62.5 g/ha: 62.5 g ai/ha; for pest or weed control at 62.5 g/ha / pest or weed control at 250 g/ha: evaluated after 13 days, 100=total damage to plant, 0=no damage to plant; for pest or weed control at 250 g/ha: 250 g ai/ha
In short: as §2

Row | SMILES | pest or weed control at 15.625 g/ha [1] [%] | pest or weed control at 62.5 g/ha [1] [%] | pest or weed control at 250 g/ha [1] [%] | pest or weed control at 15.625 g/ha [2] [%] | pest or weed control at 62.5 g/ha [2] [%] | pest or weed control at 250 g/ha [2] [%] | pest or weed control at 15.625 g/ha [3] [%] | pest or weed control at 62.5 g/ha [3] [%] | pest or weed control at 250 g/ha [3] [%] | plant injury at 15.625 g/ha (corn (Zea mays) [4]) [%] | plant injury at 62.5 g/ha (corn (Zea mays) [4]) [%] | plant injury at 250 g/ha (corn (Zea mays) [4]) [%] | pest or weed control at 15.625 g/ha [5] [%] | pest or weed control at 62.5 g/ha [5] [%] | pest or weed control at 250 g/ha [5] [%] | pest or weed control at 15.625 g/ha [6] [%] | pest or weed control at 62.5 g/ha [6] [%] | pest or weed control at 250 g/ha [6] [%] | pest or weed control at 15.625 g/ha [7] [%] | pest or weed control at 62.5 g/ha [7] [%] | also measured
1 | COc1c(F)cc(C2CN(C)C(=O)C2C(=O)Nc2cccc(F)c2F)cc1F (stereo not drawn) [Compound 1702] | 50 | 70 | 90 | 0 | 30 | 40 | 0 | 10 | 70 | 20 | 70 | 90 | 70 | 80 | 90 | 0 | 0 | 50 | 60 | 70 | pest or weed control at 250 g/ha [7]: 80%; pest or weed control at 15.625 g/ha [8]: 10%; pest or weed control at 62.5 g/ha [8]: 60%; pest or weed control at 250 g/ha [8]: 70%; pest or weed control at 15.625 g/ha [9]: 10%; pest or weed control at 62.5 g/ha [9]: 20%; pest or weed control at 250 g/ha [9]: 70%; plant injury at 15.625 g/ha (corn (Zea mays) [10]): 20%; plant injury at 62.5 g/ha (corn (Zea mays) [10]): 20%; plant injury at 250 g/ha (corn (Zea mays) [10]): 80%; pest or weed control at 15.625 g/ha [11]: 70%; pest or weed control at 62.5 g/ha [11]: 80%; pest or weed control at 250 g/ha [11]: 80%; pest or weed control at 15.625 g/ha [12]: 10%; pest or weed control at 62.5 g/ha [12]: 10%; pest or weed control at 250 g/ha [12]: 40%
2 | CN1CC(c2cc(F)c(Cl)c(F)c2)C(C(=O)Nc2cccc(F)c2F)C1=O (stereo not drawn) [Compound 1703] | 50 | 80 | 80 | 0 | 0 | 40 | 0 | 0 | 30 | 0 | 60 | 80 | 80 | 80 | 90 | 0 | 0 | 10 | 50 | 70 | pest or weed control at 250 g/ha [7]: 80%; pest or weed control at 15.625 g/ha [8]: 60%; pest or weed control at 62.5 g/ha [8]: 60%; pest or weed control at 250 g/ha [8]: 60%; pest or weed control at 15.625 g/ha [9]: 10%; pest or weed control at 62.5 g/ha [9]: 40%; pest or weed control at 250 g/ha [9]: 70%; plant injury at 15.625 g/ha (corn (Zea mays) [10]): 0%; plant injury at 62.5 g/ha (corn (Zea mays) [10]): 0%; plant injury at 250 g/ha (corn (Zea mays) [10]): 80%; pest or weed control at 15.625 g/ha [11]: 70%; pest or weed control at 62.5 g/ha [11]: 70%; pest or weed control at 250 g/ha [11]: 80%; pest or weed control at 15.625 g/ha [12]: 20%; pest or weed control at 62.5 g/ha [12]: 60%; pest or weed control at 250 g/ha [12]: 80%
